Measurements published in patent publication US5609749A, “Electrochemical assay method with novel p-phenylenediamine compound” (Mochida Pharmaceutical Co., Ltd., priority 1993, dated 1997).
Where a name gives a salt, the structure may show the parent alone.

Columns and labels:
[1] = Dry chemistry type chips: filter paper impregnated with mediator solution and dried on an electrode; settings: mediator dried on cellulose or glass filter paper, dissolved by liquid sample
Excerpt: In addition, the present inventors have attempted to prepare a dry chemistry type chips by impregnating a piece of cellulose filter paper or glass filter paper with a solution of HQ, PPD, TMPD or TEPD and drying the resulting piece on an electrode (by freeze-drying, vacuum drying, air-drying or the like) or arranging it on an electrode after drying so that the impregnated electron mediator can dissolve in a liquid sample at the time of measurement.

Glucose oxidase (GOD) = target: T1, Glucose oxidase (GOD) (Aspergillus niger, UniProt P13006); assay: Electron transfer activity 1: GOD-glucose-compound, current at +300 mV; assay type: biochemical; settings: +300 mV vs Ag/AgCl, pH 6.0
T1 construct: purchased Boehringer-Mannheim
Protocol: Measurement of electron transfer activities of TEPD, TCPD, THEPD, TDHPD, HTEPD, N,N'-BHPD, N,N-BHDPD, N,N'-BHDPD, and p-phenylenediamine derivatives having substituted amino group by reacting p-phenylenediamine with propyleneoxide--1
Glucose oxidase (GOD, manufactured by Boehringer-Mannheim) was dissolved in 0.1M phosphate buffer (pH 6.0) containing 0.1M NaCl to prepare 0M and 4.0×10^-4 M GOD solutions. Also, glucose (manufactured by Junsei Kagaku) was dissolved in the same buffer to prepare a 1.5M solution. In the same manner, each of the TEPD, TCPD, THEPD, TDHPD, HTEPD, N,N-BHDPD, N,N'-BHPD, N,N'-BHDPD, and p-phenylenediamine derivatives having substituted amino group by reacting p-phenylenediamine with propyleneoxide obtained in Synthesis Examples 1 to 9 was dissolved in the same buffer to prepare a 5.0×10^-3 M solution.
(§1) Each of these solutions was mixed in 0.1M phosphate buffer (pH 6.0) containing 0.1M NaCl in the following mixing ratio just before the measurement to prepare solutions of the following compositions A and B, and current was measured continuously in the presence (composition A) or absence (composition B) of GOD.
Using the same apparatus of Test Example 2, electric current was measured in the presence (composition A) or absence (composition B) of GOD for 10 minutes under application of potential of +300 mV (vs Ag/AgCl) to the working electrode.

[2] = target: T2, Horseradish peroxidase (HRPO) (Armoracia rusticana, UniProt P00433); assay: Electron transfer activity 2: HRPO-hydrogen peroxide-compound, current at -80 mV or -150 mV; assay type: biochemical; settings: -80 mV or -150 mV vs Ag/AgCl, pH 6.0
T2 construct: purchased TOYOBO
T2 sequence (P00433 31-338 limits assumed): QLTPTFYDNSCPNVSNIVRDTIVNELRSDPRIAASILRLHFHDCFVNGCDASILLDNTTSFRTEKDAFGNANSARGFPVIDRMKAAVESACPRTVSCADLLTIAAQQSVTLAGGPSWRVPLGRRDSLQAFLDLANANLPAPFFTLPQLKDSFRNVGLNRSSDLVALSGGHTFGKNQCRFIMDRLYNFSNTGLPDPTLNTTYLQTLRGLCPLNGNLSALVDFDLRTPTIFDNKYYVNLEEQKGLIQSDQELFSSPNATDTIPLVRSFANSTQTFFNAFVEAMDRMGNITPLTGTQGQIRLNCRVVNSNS
Protocol: Measurement of electron transfer activities of TCPD, THEPD, TDHPD, HTEPD, N,N-BHDPD, N,N'-BHPD, N,N'-BHDPD, and p-phenylenediamine derivatives having substituted amino group by reacting p-phenylenediamine with propyleneoxide--2
Horseradish peroxidase (HRPO, manufactured by TOYOBO) was dissolved in 0.1M phosphate buffer (pH 6.0) containing 0.1M NaCl to prepare 0M and 5.0×10^-7 M HRPO solutions. Also, hydrogen peroxide (manufactured by Wako Pure Chemical Industries) was dissolved in the same buffer to prepare a 1.0×10^-1 M solution. In the same manner, each of the TCPD, THEPD, TDHPD, HTEPD, N,N-BHDPD, N,N'-BHPD, N,N'-BHDPD, and p-phenylenediamine derivatives having substituted amino group by reacting p-phenylenediamine with propyleneoxide obtained in Synthesis Examples 1 to 9 was dissolved in the same buffer to prepare a 5.0×10^-3 M solution.
as §1, with “B, and electric current was” for “B, and current was”, “B) of HRPO.” for “B) of GOD.”
Using the same apparatus of Test Example 2, electric current was measured in the presence (composition A) or absence (composition B) of HRPO for 5 or 10 minutes after application of potential of -80 mV (vs Ag/AgCl, the same shall apply hereinafter) in the case of TEPD, THEPD, and TDHPD, or -150 mV in the case of TCPD, HTEPD, N,N-BHDPD, N,N'-BHPD, N,N'-BHDPD, and p-phenylenediamine derivatives having substituted amino group by reacting p-phenylenediamine with propyleneoxide.

[3] = Current response of electron mediators in buffer solution and in the presence of blood, urine; settings: for current response: in a buffer solution; for response in the presence of blood, urine and the like: interfering substances in blood
Excerpt: (§2) Of these oxidation-reduction enzymes, glucose oxidase (GOD) is used in enzyme electrodes for the measurement of blood glucose level and horseradish peroxidase (HRPO) is used as a label enzyme in specific binding assays such as DNA hybridization, immunoassay and the like. […] However, these electron mediators were not able to show stable and reproducible response in the presence of blood, urine and the like because of the interfering substances contained therein.

[4] = Measurement of vapor pressures (gas flow method); assay type: physicochemical; settings: for vapor pressure lower than that of TEPD / vapor pressure: at 25° C.; for vapor pressure: gas flow method; for property in drying (freeze-drying, vacuum drying, air-drying) and stability of dried states: compared with PPD, TMPD and TEPD, concluded from vapor pressures
Protocol: Measurement of vapor pressures of p-phenylenediamine(PPD), N,N,N',N'-tetramethyl-p-phenylenediamine (TMPD), TEPD, TCPD, THEPD and TDHPD
The PPD(manufactured by Wakoh Junyaku K.K), TMPD (manufactured by Tokyo Kasei K.K), further, TEPD, TCPD, THEPD and TDHPO obtained in the course of the procedures of Synthesis Examples 1 to 4 were checked for their vapor pressures.
Vapor densities (amount of evaporation/volume) of the solid samples (PPD, TMPD, TEPD, TCPD, THEPD and TDHPD) were measured by contacting each sample heated to a predetermined temperature with a stream of carrier gas (nitrogen) and saturating the sample with vapor, and vapor pressures of TEPD and THEPD were calculated from the data on an assumption that the vapor follows the law of ideal gas (gas flow method). The vapor density was calculated by measuring evaporation rate (loss rate) of each sample using an electric balance, and the carrier gas flow rate using a flow meter.
The vapor pressure was calculated from the vapor density based on the following formula.
In the above formula, P represents vapor pressure (mmHg), k represents evaporation rate (mg/min), v represents carrier gas flow rate (ml/min), k/v represents vapor density (mg/ml), M represents molecular weight of each sample, π represents pressure of the system (mmHg) and V represents molar volume of carrier gas (l/mol).

glucose oxidase = glucose oxidase (Aspergillus niger, UniProt P13006); assay: Current response in a buffer with electron mediator (inventors' experiments); assay type: biochemical; settings: compared with conventional electron mediators (ferrocene derivatives, inorganic ions, metal complexes)
Excerpt: as §2

horseradish peroxidase = target: T3, horseradish peroxidase (Armoracia rusticana, UniProt P00433); assay: as above; assay type: biochemical; settings: compared with conventional electron mediators (ferrocene derivatives, inorganic ions, metal complexes)
T3 sequence (P00433 31-338 limits assumed): T2 sequence (P00433 31-338 limits assumed)
Excerpt: as §2

T1 sequence (P13006 17-605): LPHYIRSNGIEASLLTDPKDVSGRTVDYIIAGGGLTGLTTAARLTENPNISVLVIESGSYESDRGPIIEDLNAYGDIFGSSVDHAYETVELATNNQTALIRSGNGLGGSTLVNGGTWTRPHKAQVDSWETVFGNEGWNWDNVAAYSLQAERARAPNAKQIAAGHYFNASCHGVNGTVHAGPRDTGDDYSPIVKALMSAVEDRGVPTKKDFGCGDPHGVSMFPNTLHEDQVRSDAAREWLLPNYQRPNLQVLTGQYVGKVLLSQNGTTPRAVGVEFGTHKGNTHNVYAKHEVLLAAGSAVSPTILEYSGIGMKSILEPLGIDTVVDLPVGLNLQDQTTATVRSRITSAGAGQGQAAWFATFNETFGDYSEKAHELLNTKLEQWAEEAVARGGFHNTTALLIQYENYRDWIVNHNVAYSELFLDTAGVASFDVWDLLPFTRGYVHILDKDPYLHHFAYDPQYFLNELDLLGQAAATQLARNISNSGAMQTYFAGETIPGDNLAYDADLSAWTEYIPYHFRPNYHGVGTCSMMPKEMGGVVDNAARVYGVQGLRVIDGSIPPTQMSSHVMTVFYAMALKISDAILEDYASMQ
Chain of glucose oxidase (P13006 17-605): as above

Compound	current response and characteristics of dry chemistry type chips [1]	function as electron mediator between GOD and the electrode (Glucose oxidase (GOD))	function as electron mediator between HRPO and the electrode [2]	further results
Oc1ccc(O)cc1 [HQ, hydroquinone]	low current response and extremely poor characteristics			
CCN(CC)c1ccc(N(CC)CCO)cc1 [HTEPD, N-2'-hydroxyethyl-,N,N',N'-triethyl-p-phenylenediamine dihydrochloride]		function as a reversible electron mediator between GOD and the electrode	function as a reversible electron mediator between HRPO and the electrode	
CCN(CCO)c1ccc(N(CC)CCO)cc1.Cl.Cl [N,N'-BHDPD, N,N'-bis-(2'-hydroxyethyl)-N,N'-diethyl-p-phenylenediamine dihydrochloride]		function as a reversible electron mediator between GOD and the electrode	function as a reversible electron mediator between HRPO and the electrode	
OCCNc1ccc(NCCO)cc1 [N,N'-BHPD, N,N'-bis-(2'-hydroxyethyl)-p-phenylenediamine]		function as a reversible electron mediator between GOD and the electrode	function as a reversible electron mediator between HRPO and the electrode	
CCN(CC)c1ccc(N(CCO)CCO)cc1.Cl.Cl [N,N-BHDPD, N,N-bis-(2'-hydroxyethyl)-N',N'-diethyl-p-phenylenediamine dihydrochloride]		function as a reversible electron mediator between GOD and the electrode	function as a reversible electron mediator between HRPO and the electrode	
Nc1ccc(N)cc1 [PPD, p-phenylenediamine]	low current response and extremely poor characteristics			current response [3]: excellent current response; response in the presence of blood, urine and the like [3]: interference
O=C(O)CN(CC(=O)O)c1ccc(N(CC(=O)O)CC(=O)O)cc1 [TCPD, N,N,N',N'-tetrakiscarboxymethyl-p-phenylenediamine]		function as a reversible electron mediator between GOD and the electrode	function as a reversible electron mediator between HRPO and the electrode	vapor pressure lower than that of TEPD [4]: about 50,000 times; vapor pressure [4]: 8.7×10^-9 mmHg; property in drying (freeze-drying, vacuum drying, air-drying) and stability of dried states [4]: superior to those of PPD, TMPD and TEPD
Cl.Cl.OCC(O)CN(CC(O)CO)c1ccc(N(CC(O)CO)CC(O)CO)cc1 (stereo not drawn) [TDHPD, N,N,N',N'-tetrakis-(2',3'-dihydroxypropyl)-p-phenylenediamine dihydrochloride]		function as a reversible electron mediator between GOD and the electrode	function as a reversible electron mediator between HRPO and the electrode	vapor pressure lower than that of TEPD [4]: about 420,000 times; vapor pressure [4]: 1.0×10^-9 mmHg; property in drying (freeze-drying, vacuum drying, air-drying) and stability of dried states [4]: superior to those of PPD, TMPD and TEPD
CN(C)c1ccc(N(C)C)cc1 [TMPD, N,N,N',N'-tetramethyl-p-phenylenediamine]	low current response and extremely poor characteristics			current response [3]: excellent current response; response in the presence of blood, urine and the like [3]: interference
hydroquinone (HQ)/benzoquinone (BQ)				current response (glucose oxidase): superior current response; current response (horseradish peroxidase): superior current response
